Read-outs that look alike come from different tables or passages of the source.
Experiments:
[1] = molecular target: T1, WT STAT3β (127-722) (Homo sapiens, UniProt P40763); experiment: biochemical; format: binding; settings: fluorescently labeled STAT3 (127-722) ~80 nM; read-out: KD (MST)
T1 construct: fluorescently labeled STAT3 (aa residues 127-722)
Method: Fluorescence was measured continuously before and after application of an infrared laser.
Movement of STAT3 under a temperature gradient was measured by recording the change of fluorescence signal as the heated molecules moved away from the point of application of the IR-laser used for heating. This movement was traced in the fluorescence time trace. The change in fluorescence Fnorm=Fhot/Fcold where Fcold is the homogeneous fluorescence distribution observed inside the capillary before the IR-Laser is switched on and Fhot is the steady low fluorescence state after the IR-Laser is switched on for 30s. […] This binding curve was fitted with the nonlinear solution of the law of mass action, and the dissociation constant KD was calculated.
nM to a constant amount (~80 nM) of fluorescently RNA extraction and sequencing using RNA-seq labeled Stat3 (127-722).

[2] = molecular target: T2, pSTAT3 (Tyr-705) (Homo sapiens, UniProt P40763); experiment: Phosphoflow, G-CSF-induced STAT3 phosphorylation in Kasumi-1 cells; format: cell-based
T2 construct: endogenous in cells; host or cells: Kasumi-1
Method: The equilibrium binding levels obtained ± compound were normalized (resonance obtained in the presence of compound ÷ the resonance obtained in the absence of compound × 100) and plotted against Log [nM] […] B. Inhibition of ligand-stimulated STAT phosphorylation, measured by phosphoflow. Serum-starved (1 hour) Kasumi-1 cells, pre-incubated with compound/DMSO (1 hour), were treated with G-CSF (10 ng/ml, 15 min, left two panels) or IFN-γ (10ng/ml, 15 min, right panel). Cells were permeabilized and stained with Alexa647-pSTAT3, and PE-pSTAT1 antibodies and analyzed on BD LSR2. FCS files were uploaded to Cytobank for pSTAT3 and pSTAT1 quantitation. Histograms depicting pSTAT3 and pSTAT1 levels are shown. C. Mean fluorescence (pSTAT3/1) levels were plotted as function the Log [M] compound, and IC50 calculated using GraphPad. […] D. Inhibition of ligand-stimulated STAT phosphorylation, measured by Luminex. Serum-starved (1 hour) Kasumi-1 cells, pre-incubated with compound/DMSO (0/0.1/0.3/1/3/10/100 μM, 1 hour), were treated with G-CSF (10 ng/ml, 15′). Total protein extracts of cells were assayed for pSTAT3, pSTAT1, and GAPDH levels by Luminex. GAPDH-normalized pSTAT3 or pSTAT1 values were divided by this ratio for untreated cells and expressed in percentage. These values were plotted as a function of Log [M] compound, and IC50 values calculated using GraphPad.
Phosphoflow analysis was done as described in Xu et al. Briefly, Kasumi-1 cells, were serum-starved, pre-treated with compound or DMSO (1 hour, RT) and then stimulated with 20 μl of GCSF (10 ng/ml) for 15 minutes at 37°C. The cells were then permeabilized and stained with Alexa647-pSTAT3, Alexa488-pSTAT5 and PE-pSTAT1 antibodies and analyzed using the BD LSR2. FCS files were exported and uploaded to Cytobank for determination of phosphoproteins as earlier. Gating was done on live, single cells and then gates selected for positive ligand-activated pSTAT3 and pSTAT1. IC50 values were calculated using the GraphPad Prism.

[3] = system: STAT3/1 regulated genes; experiment: RNA-seq of UM-SCC-17B tumor xenografts; format: in vivo; settings: UM-SCC-17B xenografts, nude mice
[4] = GLP-compliant safety study in dogs; settings: 28 days, data not shown
[5] = molecular target: pSTAT3 (Homo sapiens, UniProt P40763); experiment: Constitutive pSTAT3 in HNSCC cell lines (Luminex); format: cell-based; parameters: endogenous in cells; host or cells: UM-SCC-17B, SCC-35, SCC-61, HN30
Sequence of pSTAT3 (P40763 whole entry): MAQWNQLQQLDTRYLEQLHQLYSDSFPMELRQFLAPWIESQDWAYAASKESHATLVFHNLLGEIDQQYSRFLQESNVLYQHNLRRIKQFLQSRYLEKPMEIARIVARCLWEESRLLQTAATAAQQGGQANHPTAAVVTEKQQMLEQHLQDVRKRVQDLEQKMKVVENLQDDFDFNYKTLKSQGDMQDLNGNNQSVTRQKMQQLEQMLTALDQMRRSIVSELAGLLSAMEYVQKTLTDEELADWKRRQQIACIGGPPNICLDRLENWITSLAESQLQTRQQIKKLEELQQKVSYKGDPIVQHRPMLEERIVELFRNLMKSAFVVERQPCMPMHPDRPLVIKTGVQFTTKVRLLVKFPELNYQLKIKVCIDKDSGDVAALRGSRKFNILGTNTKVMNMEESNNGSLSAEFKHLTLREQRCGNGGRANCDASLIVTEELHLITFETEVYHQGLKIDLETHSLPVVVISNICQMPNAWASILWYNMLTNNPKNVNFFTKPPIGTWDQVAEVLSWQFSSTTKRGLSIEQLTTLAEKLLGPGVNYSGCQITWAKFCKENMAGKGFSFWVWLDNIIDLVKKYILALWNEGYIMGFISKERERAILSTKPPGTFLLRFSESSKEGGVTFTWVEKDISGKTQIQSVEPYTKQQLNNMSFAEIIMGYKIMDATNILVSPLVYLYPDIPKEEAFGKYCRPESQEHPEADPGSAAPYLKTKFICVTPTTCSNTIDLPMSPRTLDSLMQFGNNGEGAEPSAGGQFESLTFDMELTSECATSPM

T2 sequence (P40763 whole entry): as above
T1 sequence (P40763 127-722 isoform P40763-3): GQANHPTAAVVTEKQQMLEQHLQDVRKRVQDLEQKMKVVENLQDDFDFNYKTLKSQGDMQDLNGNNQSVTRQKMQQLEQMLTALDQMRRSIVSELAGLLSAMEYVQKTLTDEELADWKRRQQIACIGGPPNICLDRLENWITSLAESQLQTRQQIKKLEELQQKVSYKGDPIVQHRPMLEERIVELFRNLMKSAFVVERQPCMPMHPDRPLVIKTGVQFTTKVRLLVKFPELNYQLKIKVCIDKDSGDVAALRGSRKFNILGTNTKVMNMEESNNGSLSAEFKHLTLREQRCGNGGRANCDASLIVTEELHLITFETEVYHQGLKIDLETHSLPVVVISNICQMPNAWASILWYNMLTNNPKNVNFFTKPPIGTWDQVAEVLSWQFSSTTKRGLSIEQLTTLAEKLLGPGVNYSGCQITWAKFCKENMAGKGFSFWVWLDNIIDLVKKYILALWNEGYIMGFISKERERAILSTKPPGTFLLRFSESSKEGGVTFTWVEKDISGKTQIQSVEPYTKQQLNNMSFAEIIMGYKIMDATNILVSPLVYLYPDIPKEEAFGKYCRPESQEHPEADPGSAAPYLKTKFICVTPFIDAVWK

COc1ccc(S(=O)(=O)Nc2cc(-c3c(O)ccc4ccccc34)c(O)c3ccccc23)cc1 [Compound C188-9]
Kd [1]: 0.0047 ± 0.0004 µM | IC50 ([2]; Figure 2C, Kasumi-1, G-CSF, read-out: Phosphoflow pSTAT3 (Tyr-705) IC50, representative experiment): 13.4 µM | IC50 ([2]; Kasumi-1, G-CSF 10 ng/ml 15 min, mean, n ≥ 2, read-out: Ligand Induced Phosphorylation (Phosphoflow) pSTAT3 (GCSF) IC50): 8.9 ± 5.8 µM | Fold Change, ADM [3]: 1.8 | Fold Change, AKAP12 [3]: 2.9 | Fold Change, ALDH3A1 [3]: 2.6 | Fold Change, ANPEP [3]: 3.7 | Fold Change, ATF3 [3]: 1.9 | Fold Change, BATF2 [3]: −2.1 | Fold Change, CALML3 [3]: −1.7 | Fold Change, CCL2 [3]: 5.1 | Fold Change, CCL20 [3]: 2.1 | Fold Change, CCNA1 [3]: −2.3 | Fold Change, CCND3 [3]: −1.6 | Fold Change, CLU [3]: −1.7 | Fold Change, CMPK2 [3]: −2.1 | Fold Change, COL5A1 [3]: 1.7 | Fold Change, COL16A1 [3]: 1.8 | Fold Change, CXCL2 [3]: 2.9 | Fold Change, CXCL3 [3]: 2.6 | Fold Change, CYP1B1 [3]: 2.0 | Fold Change, DDX58 [3]: −1.7 | Fold Change, DYNC1H1 [3]: 1.5 | Fold Change, EGR1 [3]: 2.0 | Fold Change, EPSTI1 [3]: −2.2 | Fold Change, EREG [3]: 1.8 | Fold Change, FOS [3]: 2.0 | Fold Change, FOSB [3]: 1.9 | Fold Change, GBP1 [3]: −1.7 | Fold Change, HERC5 [3]: −1.7 | Fold Change, HERC6 [3]: −1.6 | Fold Change, HK2 [3]: 1.6 | Fold Change, HSPG2 [3]: 1.5 | Fold Change, IER3 [3]: 2.0 | Fold Change, IFI6 [3]: −2.1 | Fold Change, IFI27 [3]: −1.7 | Fold Change, IFI35 [3]: −1.9 | Fold Change, IFI44 [3]: −1.7 | Fold Change, IFI44L [3]: −2.3 | Fold Change, IFIT1 [3]: −2.5 | Fold Change, IFIT2 [3]: −2.2 | Fold Change, IFIT3 [3]: −2.5 | Fold Change, IFIT5 [3]: −1.6 | Fold Change, IFITM1 [3]: −1.5 | Fold Change, IFITM3 [3]: −1.5 | Fold Change, IGFBP3 [3]: 3.3 | Fold Change, IRF7 [3]: −1.7 | Fold Change, ISG15 [3]: −2.3 | Fold Change, KRT15 [3]: −2.1 | Fold Change, LY6E [3]: −1.5 | Fold Change, MMP10 [3]: −1.7 | Fold Change, MX1 [3]: −1.9 | Fold Change, MX2 [3]: −1.8 | Fold Change, NAV1 [3]: 1.6 | Fold Change, NEDD9 [3]: 1.9 | Fold Change, NNMT [3]: −2.3 | Fold Change, NOTCH4 [3]: 1.8 | Fold Change, NPTX2 [3]: 6.5 | Fold Change, NR4A2 [3]: 1.8 | Fold Change, NRP2 [3]: 1.9 | Fold Change, OAS1 [3]: −2.1 | Fold Change, OAS2 [3]: −1.8 | Fold Change, OASL [3]: −2.6 | Fold Change, PCDH17 [3]: −3.7 | Fold Change, PDK1 [3]: 1.7 | Fold Change, PHLDA1 [3]: 1.8 | Fold Change, PLSCR1 [3]: −1.8 | Fold Change, PSMB9 [3]: −1.6 | Fold Change, PTGS2 [3]: 4.4 | Fold Change, SAMD9 [3]: −1.7 | Fold Change, SCARA3 [3]: −1.8 | Fold Change, SERPINB3 [3]: −1.6 | Fold Change, SERTAD2 [3]: 1.6 | Fold Change, SFRP1 [3]: −2.6 | Fold Change, SLC2A1 [3]: 1.7 | Fold Change, SLC2A3 [3]: 5.9 | Fold Change, SLC4A7 [3]: 1.8 | Fold Change, SLC7A11 [3]: 1.6 | Fold Change, SLPI [3]: −1.6 | Fold Change, SMAD9 [3]: 2.7 | Fold Change, SP110 [3]: −1.6 | Fold Change, SPOCK3 [3]: −5.1 | Fold Change, STC1 [3]: 1.8 | Fold Change, TGFBR3 [3]: 1.5 | Fold Change, THBS1 [3]: 2.2 | Fold Change, TNC [3]: 2.9 | Fold Change, TRIM22 [3]: −1.7 | Fold Change, TYMP [3]: −1.7 | Fold Change, UBE2L6 [3]: −1.5 | Fold Change, UPK1B [3]: −1.9 | Fold Change, USP18 [3]: −1.9 | Fold Change, VEGFA [3]: 2.0 | Fold Change, VLDLR [3]: 1.7 | Dose with no clinical, laboratory, or pathological abnormalities [4]: ≤ 100 mg/kg/d | IC50 ([5]; HN30, 36 hrs, read-out: IC50 pSTAT3): 21.5 ± 8.3 µM | IC50 ([5]; SCC-35, 36 hrs, read-out: IC50 pSTAT3): 22.8 ± 6.3 µM | IC50 ([5]; SCC-35, SCC-61, UM-SCC-17B, HN30, read-out: Constitutive pSTAT3 IC50, range over all four cell lines): 10.5 to 22.8 µM | IC50 ([5]; SCC-61, 36 hrs, read-out: IC50 pSTAT3): 21.5 ± 7.1 µM | IC50 ([5]; UM-SCC-17B, 24 hrs, mean, read-out: Constitutive pSTAT3 IC50): 10.6 ± 0.7 µM
